Common to all, as to type: functional, cell-based
In one assay the test system is Huh-7. Kind of assay: Antiproliferative activity against human HuH7 cells after 72 hrs by SRB assay. Background: In SRB staining, fixed cells bind dye roughly in proportion to their protein.
Another assay concerns HCT-116. Kind of assay: Antiproliferative activity against human HCT116 cells after 72 hrs by SRB assay.
The subject of a further assay is MCF7. Kind of assay: Antiproliferative activity against human MCF7 cells after 72 hrs by SRB assay.
For a further assay, the system named is HepG2. The assay is described as follows: Antiproliferative activity against human HepG2 cells after 72 hrs by SRB assay.
The test system of another assay is Mahlavu. Kind of assay: Antiproliferative activity against human Mahlavu cells after 72 hrs by SRB assay.
Assay [1] in a line: Antiproliferative activity against human FOCUS cells after 72 hrs by SRB assay.
The mark [2] stands for this setting: Homo sapiens, HCT-116, 72 h, read-out: IC50.
Setting [3] is: Homo sapiens, MCF7, 72 h, read-out: IC50.
Where [4] appears, read: Homo sapiens, Huh-7, 72 h, read-out: IC50.
The mark [5] stands for this setting: Homo sapiens, HepG2, 72 h, read-out: IC50.
[6] abbreviates: Homo sapiens, Mahlavu, 72 h, read-out: IC50.
Setting [7] is: Homo sapiens, 72 h, read-out: IC50.

One may read the IC50 as the concentration needed to halve the response being measured. `OC[C@H]1O[C@@H](n2cnc3c(NCCNc4ccccc4)ncnc32)[C@H](O)[C@@H]1O`: the IC50 result was “Not Active” in the assay with Huh-7 (huh-7), 30 µM in the assay on HCT-116 (setting [2]) and > 100 µM in the assay with MCF7 (setting [3]).

For the compound `OC[C@H]1O[C@@H](n2cnc3c(NCCC4=CCCCC4)ncnc32)[C@H](O)[C@@H]1O`, the IC50 was > 100 µM in the assay on Huh-7 (setting [4]); 6 µM in the assay on HCT-116 (setting [2]); 3 µM in the assay on MCF7 (setting [3]); 1 µM in the assay on HepG2 (setting [5]); > 100 µM in the assay with Mahlavu (setting [6]); “Not Active” in assay [1].

For `Nc1nc(N2CCN(c3ccccc3)CC2)c2ncn([C@@H]3O[C@H](CO)[C@@H](O)[C@H]3O)c2n1`, the IC50 with Huh-7 (setting [4]) was 50 µM; in the assay on HCT-116 (setting [2]), 30 µM; with MCF7 (mcf7), “Not Active”; in the assay with HepG2 (setting [5]), > 100 µM; in the assay with Mahlavu (mahlavu), “Not Active”; in assay [1] (setting [7]), 9 µM.

Consider `Cc1ccc(N2CCN(c3nc(N)nc4c3ncn4[C@@H]3O[C@H](CO)[C@@H](O)[C@H]3O)CC2)cc1`, for which the IC50 entry with Huh-7 (huh-7), in the assay on HCT-116 (hct-116) and with MCF7 (mcf7) was “Not Active” in each case.

Consider `CN(C)c1ccc(Nc2ncnc3c2ncn3[C@@H]2O[C@H](CO)[C@@H](O)[C@H]2O)cc1`, for which the IC50 was 80 µM in the assay on Huh-7 (setting [4]); 40 µM in the assay on HCT-116 (setting [2]); 30 µM in the assay with MCF7 (setting [3]); 30 µM in the assay on HepG2 (setting [5]); 30 µM with Mahlavu (setting [6]); 20 µM in assay [1] (setting [7]).

For `OC[C@H]1O[C@@H](n2cnc3c(N4CCN(C5CCCCC5)CC4)ncnc32)[C@H](O)[C@@H]1O`, the concentration for half-maximal inhibition (IC50) result is “Not Active” in the assay on Huh-7 (huh-7), > 100 µM in the assay on HCT-116 (setting [2]) and “Not Active” in the assay with MCF7 (mcf7).

For `Cc1ccc(N2CCN(c3ncnc4c3ncn4[C@@H]3O[C@H](CO)[C@@H](O)[C@H]3O)CC2)cc1`, the IC50 entry was “Not Active” with Huh-7 (huh-7); 70 µM with HCT-116 (setting [2]); > 100 µM in the assay with MCF7 (setting [3]); “Not Active” in the assay with HepG2 (hepg2); > 100 µM in the assay on Mahlavu (setting [6]); 40 µM in assay [1] (setting [7]).

Consider `O=c1[nH]cc(F)c(=O)[nH]1` [FLUOROURACIL], for which the IC50 came out at 30 µM with Huh-7 (setting [4]); 4 µM in the assay on HCT-116 (setting [2]); 3 µM in the assay on MCF7 (setting [3]); 10 µM with Mahlavu (setting [6]); 4 µM in assay [1] (setting [7]).

In the case of `Nc1nc(N2CCN(C(c3ccccc3)c3ccccc3)CC2)c2ncn([C@@H]3O[C@H](CO)[C@@H](O)[C@H]3O)c2n1`, the IC50 came out at 10 µM in the assay on Huh-7 (setting [4]); 20 µM with HCT-116 (setting [2]); 20 µM in the assay on MCF7 (setting [3]); 20 µM in the assay on HepG2 (setting [5]); 7 µM in the assay with Mahlavu (setting [6]); 20 µM in assay [1] (setting [7]).

As for `OC[C@H]1O[C@@H](n2cnc3c(Nc4ccc(N5CCOCC5)cc4)ncnc32)[C@H](O)[C@@H]1O`, the IC50 result was “Not Active” with Huh-7 (huh-7), “Not Active” with HCT-116 (hct-116) and 80 µM in the assay on MCF7 (setting [3]).

Consider `CSc1ccc(Nc2ncnc3c2ncn3[C@@H]2O[C@H](CO)[C@@H](O)[C@H]2O)cc1`, for which the IC50 result in the assay on Huh-7 (huh-7) was “Not Active”; in the assay on HCT-116 (setting [2]), > 100 µM; in the assay with MCF7 (mcf7), “Not Active”.

On to `Nc1nc(Cl)nc2c1ncn2[C@H]1C[C@H](O)[C@@H](CO)O1` [CLADRIBINE], for which the IC50 is 0.4 to 0.9 µM in the assay on Huh-7 (setting [4]); < 0.1 µM with HCT-116 (setting [2]); 0.04 µM in the assay with HepG2 (setting [5]); 0.1 µM in the assay with Mahlavu (setting [6]); 0.4 µM in assay [1] (setting [7]).

On to `OC[C@H]1O[C@@H](n2cnc3c(N4CCN(c5ccc(C(F)(F)F)cc5)CC4)nc(Cl)nc32)[C@H](O)[C@@H]1O`, for which the half-maximal inhibitory concentration (IC50) in the assay with Huh-7 (setting [4]) was 1 to 2 µM; in the assay on HCT-116 (setting [2]), 1 µM; with MCF7 (setting [3]), 4 µM; in the assay on HepG2 (setting [5]) it was 3 µM; in the assay with Mahlavu (setting [6]), 3 µM; in assay [1] (setting [7]) it was 1 µM.

`Nc1nc(N2CCN(c3ncccn3)CC2)c2ncn([C@@H]3O[C@H](CO)[C@@H](O)[C@H]3O)c2n1`: the IC50 result in the assay with Huh-7 (huh-7), with HCT-116 (hct-116) and in the assay with MCF7 (mcf7) was “Not Active” each time.

`Nc1nc(N2CCN(c3ccc(F)cc3)CC2)c2ncn([C@@H]3O[C@H](CO)[C@@H](O)[C@H]3O)c2n1`: the IC50 with Huh-7 (setting [4]) was > 100 µM; with HCT-116 (setting [2]), 30 µM; in the assay on MCF7 (mcf7) it was “Not Active”.

For the compound `CC(C)c1ccc(Nc2ncnc3c2ncn3[C@@H]2O[C@H](CO)[C@@H](O)[C@H]2O)cc1`, the IC50 was found to be 60 µM with Huh-7 (setting [4]); 10 µM in the assay with HCT-116 (setting [2]); 50 µM with MCF7 (setting [3]); 40 µM in the assay on HepG2 (setting [5]); 40 µM with Mahlavu (setting [6]); 20 µM in assay [1] (setting [7]).

For `OC[C@H]1O[C@@H](n2cnc3c(N4CCN(c5ncccn5)CC4)ncnc32)[C@H](O)[C@@H]1O`, the half-maximal inhibitory concentration (IC50) result in the assay with Huh-7 (huh-7) was “Not Active”; with HCT-116 (setting [2]), > 100 µM; with MCF7 (setting [3]) it was 40 µM.

For the compound `OC[C@H]1O[C@@H](n2cnc3c(NCCC4=CCCCC4)nc(Cl)nc32)[C@H](O)[C@@H]1O`, the IC50 in the assay with Huh-7 (setting [4]) came to 20 µM; in the assay on HCT-116 (setting [2]), 90 µM; in the assay on MCF7 (setting [3]) it was 30 µM; in the assay with HepG2 (setting [5]), 40 µM; in the assay on Mahlavu (setting [6]), 30 µM; in assay [1] (setting [7]) it was 50 µM.

As for `Nc1nc(F)nc2c1ncn2[C@@H]1O[C@H](CO)[C@@H](O)[C@@H]1O` [FLUDARABINE], the IC50 with Huh-7 (setting [4]) came out at 30 µM; with HCT-116 (setting [2]) it was 8 µM; with MCF7 (setting [3]) it was 15 µM; in the assay with HepG2 (setting [5]), 20 µM; with Mahlavu (setting [6]), 10 µM; in assay [1] (setting [7]), 10 µM.

These data come from ChEMBL document CHEMBL4184126, “Synthesis of novel 6-substituted amino-9-(β-d-ribofuranosyl)purine analogs and their bioactivities on human epithelial cancer cells” (Bioorg Med Chem Lett, 2018).
